Assay results as given in ChEMBL document CHEMBL1129457, “Indole inhibitors of human nonpancreatic secretory phospholipase A2. 1. Indole-3-acetamides” (J Med Chem, 1996).

Assays:
[1] = molecular target: T1, Phospholipase A2, membrane associated (Homo sapiens, UniProt P14555); assay: Inhibition of Human Nonpancreatic Secretory Phospholipase A2 through Chromogenic assay; assay type: functional
T1 sequence (P14555 whole entry): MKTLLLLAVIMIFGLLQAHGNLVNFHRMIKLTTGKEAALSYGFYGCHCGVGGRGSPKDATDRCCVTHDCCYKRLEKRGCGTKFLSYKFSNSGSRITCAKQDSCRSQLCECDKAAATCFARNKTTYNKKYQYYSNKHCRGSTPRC

[2] = molecular target: T2, Phospholipase A2, membrane associated (Homo sapiens) (UniProt P14555); assay: Inhibition of PLA2 induced contraction of GP lung tissue (Guinea pig) (n=4); assay type: functional, tissue-based; conditions: Cavia porcellus, target entry is the homologue from another species
T2 sequence (whole entry): T1 sequence (P14555 whole entry)

Cavia porcellus = species: Cavia porcellus; assay: Inhibition of AA (arachidonic acid) - induced contraction of GP lung tissue (n=4).; assay type: functional
[3] = molecular target: T2, Phospholipase A2, membrane associated (Homo sapiens); assay: Inhibition of Human Nonpancreatic Secretory PLA2 through Chromogenic assay at 47ug/mL; assay type: functional
[4] = molecular target: T2, Phospholipase A2, membrane associated (Homo sapiens); assay: Mole fraction as PLA2 IC50 concentration divided by total lipid concentration (1230 uM); assay type: functional

SMILES: COc1ccc2c(c1)c(CC(N)=O)c(C)n2CCCc1ccccc1
- IC50 [1]: 11.1 µM

SMILES: Cc1c(CC(=O)NN)c2cc(C(=O)O)ccc2n1Cc1cccc(Cl)c1
- Kb [2]: 1.39 µM
- ED50 (Cavia porcellus): >30 µM

SMILES: COc1ccc2c(c1)c(CC(N)=O)c(C)n2Cc1cccc(Cl)c1
- IC50 [1]: 0.91 µM

SMILES: COc1ccc2c(c1)c(CC(=O)NN)c(C)n2Cc1cccc(-c2ccccc2)c1
- Kb [2]: 22.6 µM

SMILES: COc1ccc2c(c1)c(CC(=O)NN)c(C)n2Cc1cccc(O)c1
- Kb [2]: 5.96 µM
- ED50 (Cavia porcellus): >30 µM

SMILES: COc1ccc2c(c1)c(CC(=O)NN)c(C)n2Cc1ccccc1-c1ccccc1
- Kb [2]: > 10 µM
- ED50 (Cavia porcellus): >10 µM

SMILES: COc1ccc2c(c1)c(CC#N)c(C)n2Cc1ccccc1
- inhibition [3]: 45%
- Mole fraction [4]: Mole fraction as PLA2 IC50 concentration divided by total lipid concentration (1230 uM)

SMILES: COc1cccc2c1c(CC(=O)NN)c(C)n2Cc1cccc(Cl)c1
- IC50 [1]: 0.23 µM

SMILES: COc1ccc2c(c1)c(CC(=O)NN)c(C1CC1)n2Cc1ccccc1
- IC50 [1]: 0.39 µM

SMILES: CCCCCCCCCCn1c(C)c(CC(=O)NN)c2cc(OC)ccc21
- IC50 [1]: 9.43 µM

SMILES: Cc1c(CC(N)=O)c2cc(N)ccc2n1Cc1ccccc1
- Kb [2]: 1.98 µM
- ED50 (Cavia porcellus): 14.5 µM

SMILES: CONC(=O)Cc1c(C)n(Cc2ccccc2)c2ccc(OC)cc12
- IC50 [1]: 40 µM

SMILES: COc1ccc2c(c1)c(CC(=O)NN)c(Cl)n2Cc1ccccc1
- Kb [2]: 0.85 µM
- ED50 (Cavia porcellus): 9.37 µM

SMILES: CCc1c(C(=O)C(N)=O)c2cc(OC)ccc2n1Cc1ccccc1
- IC50 [1]: 2.56 µM

SMILES: COc1ccc2c(c1)c(C(C)C(=O)NN)c(C)n2Cc1ccccc1 (stereo unspecified)
- IC50 [1]: 32.6 µM

SMILES: COc1ccc2c(c1)c(C(O)C(N)=O)c(C)n2Cc1ccccc1 (stereo unspecified)
- IC50 [1]: 20.1 µM

SMILES: CCc1c(CC(=O)NN)c2cc(OC)ccc2n1Cc1ccccc1
- Kb [2]: 2.04 µM
- ED50 (Cavia porcellus): >30 µM

SMILES: COc1ccc2c(C(=O)C(N)=O)c(C)n(Cc3ccccc3)c2c1
- IC50 [1]: 1.77 µM

SMILES: COc1ccc2c(c1)c(CC(=O)O)c(C)n2Cc1ccccc1
- IC50 [1]: 13.6 µM

SMILES: COc1ccc2c(c1)c(CC(N)=O)c(SC)n2Cc1ccccc1
- IC50 [1]: 0.45 µM
- Kb [2]: 7.93 µM

SMILES: COc1ccc2c(c1)c(CC(=O)NN)c(C)n2Cc1cccc(N)c1
- IC50 [1]: 4.32 µM

SMILES: CNC(=O)Cc1c(C)n(Cc2ccccc2)c2ccc(OC)cc12
- IC50 [1]: 142 µM

SMILES: COc1ccc2c(c1)c(CC(N)=O)c(C)n2CC1CCCCC1
- Kb [2]: 22.5 µM
- ED50 (Cavia porcellus): 25.65 µM

SMILES: COc1cccc2c1c(CC(=O)NN)c(C)n2Cc1ccccc1
- IC50 [1]: 0.55 µM

SMILES: CCCc1c(CC(=O)NN)c2cc(OC)ccc2n1Cc1ccccc1
- Kb [2]: 27.1 µM
- ED50 (Cavia porcellus): >30 µM

SMILES: COc1cccc(Cn2c(C)c(CC(=O)NN)c3cc(OC)ccc32)c1
- IC50 [1]: 2.12 µM

SMILES: Cc1c(CC(N)=O)c2cc([N+](=O)[O-])ccc2n1Cc1ccccc1
- IC50 [1]: 1.51 µM

SMILES: COc1ccc2c(c1)c(CC(=O)NN)c(SC)n2Cc1ccccc1
- IC50 [1]: 0.62 µM

SMILES: COC(=O)Cc1c(C)n(Cc2ccccc2)c2ccc(OC)cc12
- IC50 [1]: 116 µM

SMILES: CCc1c(CC(N)=O)c2cc(OC)ccc2n1Cc1ccccc1
- Kb [2]: 5.91 µM
- ED50 (Cavia porcellus): >30 µM

SMILES: Cc1c(CC(=O)NN)c2ccccc2n1-c1ccccc1
- IC50 [1]: 38.2 µM

SMILES: COc1ccc2c(c1)c(CC(=O)NN)c(C)n2Cc1cccc(Cl)c1
- IC50 [1]: 1.36 µM
- Kb [2]: 1.13 µM
- ED50 (Cavia porcellus): >30 µM

SMILES: CCC(C(=O)NN)c1c(C)n(Cc2ccccc2)c2ccc(OC)cc12 (stereo unspecified)
- IC50 [1]: 24.2 µM

SMILES: COc1ccc2c(c1)c(C(=O)C(N)=O)c(C)n2Cc1ccccc1
- IC50 [1]: 1.23 µM

SMILES: COc1cccc2c1c(CC(N)=O)c(C)n2Cc1cccc(Cl)c1
- IC50 [1]: 1.38 µM

SMILES: CCc1c(C(=O)C(N)=O)c2c(OC)cccc2n1Cc1ccccc1
- IC50 [1]: 0.55 µM

SMILES: CCc1c(C(=O)C(N)=O)c2c([N+](=O)[O-])cccc2n1Cc1ccccc1
- IC50 [1]: 37.8 µM

SMILES: COc1ccc2c(c1)c(CC(=O)NN)c(C)n2Cc1cccc(OCc2ccccc2)c1
- Kb [2]: 3.86 µM
- ED50 (Cavia porcellus): >30 µM

SMILES: COc1ccc2c(c1)c(CC(=N)N)c(C)n2Cc1ccccc1
- IC50 [1]: 64.7 µM

SMILES: COc1ccc2c(c1)c(CC(=O)NN)c(C)n2C(c1ccccc1)c1ccccc1
- IC50 [1]: 40.2 µM

SMILES: COc1ccc2c(c1)c(CC(=N)S)c(C)n2Cc1ccccc1
- IC50 [1]: 74.1 µM

SMILES: CCc1c(C(O)C(N)=O)c2c(OC)cccc2n1Cc1ccccc1 (stereo unspecified)
- IC50 [1]: 53 µM

SMILES: COc1ccc2c(c1)c(CC(=O)NN)cn2Cc1ccccc1
- IC50 [1]: 4.9 µM
- Kb [2]: 5.64 µM
- ED50 (Cavia porcellus): >10 µM

SMILES: CCCCCCC(C(=O)NN)c1c(C)n(Cc2ccccc2)c2ccc(OC)cc12 (stereo unspecified)
- IC50 [1]: 101 µM

SMILES: CCc1c(CC(=O)NN)c2cc(OC)ccc2n1Cc1ccccc1-c1ccccc1
- IC50 [1]: 2.35 µM
- Kb [2]: 30.1 µM
- ED50 (Cavia porcellus): >30 µM

SMILES: COc1ccc2c(c1)c(Cc1nnn[nH]1)c(C)n2Cc1ccccc1
- IC50 [1]: 84.7 µM

SMILES: CCc1c(CC(N)=O)c2c(OC)cccc2n1Cc1ccccc1
- IC50 [1]: 1.18 µM

SMILES: COc1ccc2c(c1)c(CC(N)=O)c(C)n2C(=O)c1ccccc1
- IC50 [1]: 7.21 µM

SMILES: COc1ccc2c(c1)c(CCC(N)=O)c(C)n2Cc1ccccc1
- IC50 [1]: 28.1 µM

SMILES: COc1ccc2c(c1)c(CC(=O)NN)c(Br)n2Cc1ccccc1
- Kb [2]: 0.76 µM
- ED50 (Cavia porcellus): 7.32 µM

SMILES: CCCCCCCCCCn1c(C)c(CC(N)=O)c2cc(OC)ccc21
- IC50 [1]: 9.47 µM

SMILES: COc1ccc2c(C(O)C(N)=O)c(C)n(Cc3ccccc3)c2c1 (stereo unspecified)
- IC50 [1]: 121 µM
